US20240094211A1, “COMPOSITIONS AND METHODS TARGETING S100A10 FOR THE TREATMENT AND DIAGNOSIS OF LIVER CANCER” (The University of Hong Kong, priority 2022, published 2024)

Experiments:
HCC cells (PLC, 97L) [1] = assay: Chemotherapy-induced cytotoxicity / chemoresistance (XTT assay); format: cell-based, human; settings: for cell viability of S100A10-OE cells versus controls on treatment: PLC and 97L
HCC cells (PLC, 97L) [2] = assay: Apoptotic assay (annexin-V staining, flow cytometry); format: cell-based, human; settings: PLC and 97L, 48 h
Procedure: The apoptotic assay was determined by flow cytometry using annexin-V staining.

[3] = tested on: PLC-S100A10 xenograft tumors; assay: Chemoresistance / treatment in subcutaneous xenograft model; format: in vivo; settings: nude mice
Procedure: All animal experiments were conducted and approved by the University of Hong Kong Committee on the Use of Live Animals in Teaching and Research (CULATR). The frequency of CSCs with tumor initiation capabilities was evaluated using limiting dilution assay. The BALB/c nude mouse xenograft model was used to evaluate tumorigenicity and chemoresistant ability in vivo. Nude mice were intrasplenically injected with HCC cells to assess the liver metastatic capacity in vivo. After surgery, mice recovered from anesthesia in a cage under a heater. Analgesia was provided to the nude mice during the first postoperative week. Tail vein injection of luciferase-labelled MHCC-97L cells in NOD SCID mice was used to assess lung metastatic ability. After mice were killed, the tumor tissues, livers, spleens, and lungs were excised and fixed in 4% paraformaldehyde overnight. Thereafter, fixed tissues were embedded in paraffin for further studies.
For chemoresistance in xenograft model, subcutaneous xenografts in nude mice were established with PLC/PRF/5 or MHCC97L cells. Treatment was started once the size of the xenograft reached ˜5 mm in diameter. The mice were randomly assigned into different groups, each consisting of at least 5 mice. Sorafenib at 10 mg/kg was administered daily through oral gavage. Mouse IgG antibody or anti-S100A10 antibody was administered at 10 μg once every 3 days by intraperitoneal injection.

S100A10 = S100A10 expression under chemotherapeutic treatment (qRT-PCR, western blot); format: cell-based, human; settings: HCC cells treated with chemotherapeutic agents
Procedure: Total RNA was extracted using the TRIZOL Reagent (Life Technologies). cDNA was synthesized by reverse transcription (Roche). SYRB Green PCR Master Mix (Applied Biosystems) and Applied Biosystems Quant Studio 5 Real-time PCR System were used for qRT-PCR analysis. All qRT-PCR reactions were tested in triplicates.
(§1) Quantified protein lysates were resolved on SDS-PAGE, transferred onto a polyvinylidenedifluoride (PVDF) membrane (Bio-Rad), and then blocked with 5% non-fat milk in Tris-buffered saline-Tween 20 (TBST) for 1 h at room temperature. The blocked membrane was then incubated with primary antibody diluted in 5% bovine serum albumin in TBST at 4° C. overnight.

HIF-1α = HIF-1α expression under chemotherapeutic treatment (western blot); format: cell-based, human; settings: HCC cells treated with chemotherapeutic agents
Procedure: as §1

HCC cells (PLC, 97L) [4] = assay: Transwell migration and matrigel invasion assays (pretreated HCC cells); format: cell-based, human
Procedure: Transwell migration and invasion assays were performed to evaluate cell motility (Corning, #353097 for migration, #354480 for invasion). Approximately 1×10^5 cells were seeded in the medium without FBS on transwell upper chambers, and the lower chamber was supplied with medium with 10% FBS, with the indicated conditional medium, or EVs. The cells that migrated and invaded to the lower membrane surface were stained using crystal violet and then counted under microscopy.
(§2) HCC cells were seeded in 6-well plate and subjected to 2 μg EVs treatment for 48 hours one day after seeding. Then the cells were used for functional studies or western blotting. For treating with neutralizing antibodies, EVs were incubated with PBS (1:10 volume/volume), IgG antibody (1:10 volume/volume) (Santa Cruz, sc-2025), or anti-S100A10 neutralizing antibody (1:10 volume/volume) (Santa Cruz, sc-81153) before they were applied in in vitro or in vivo assays. For S100A10 NA or ITGAV treatment before EVs isolation, 20 ug S100A10 NA or IgG were pre-incubate with 1,000 million cells and then seed in medium with 10% EVs free FBS. Then the EVs were collected after 48 hours.

PLC cells [5] = assay: Focus formation assay; format: cell-based, human
Procedure: Focus formation assay was used to assess anchorage-dependent growth. In brief, 1,000 cells were seeded in each well of six-well plate for approximately 2-3 weeks. Surviving colonies were stained and counted using crystal violet (Sigma-Aldrich).
as §2

PLC cells [6] = assay: Sphere formation assay; format: cell-based, human
Procedure: A total of 1,000 cells were cultured in 0.25% methyl cellulose (Sigma-Aldrich) supplemented DMEM/F12 medium (Life Technologies) with 20 ng/mL EGF (Life Technologies), 10 ng/mL basic FGF (Life Technologies), B27 (1:50, GIBCO), and 4 μg/mL insulin (BIOIND, Kibbutz Beit Haemek, Israel) in 24-well plates, which were coated with poly HEMA (Sigma-Aldrich). The cells were replenished with 30 μL supplementary medium every other day.
as §2

PLC-Vec/S100A10 cells = assay: XTT assay for cell proliferation with gefitinib; format: cell-based, human
[7] = tested on: MMP2, fibronectin and EGF on EVs; assay: Western blotting of MMP2, fibronectin, EGF and S100A10 in EVs and cells; format: cell-based, human; settings: PLC-S100A10 cells treated 48 hours, compared with control GRADSP peptides (RAD)
Procedure: For EVs isolation from cell culture supernatants, HCC cells were cultured in medium with 10% EV-depleted FBS, which was prepared by 100,000× g centrifugation overnight (≥12 h) at 4° C. (Himac, CP100NX Ultracentrifuges). EVs were purified by differential centrifugation after the cell culture supernatant were collected. Briefly, cell culture supernatants were centrifuged at 2000×g for 15 min to remove cell debris and dead cells. Then the supernatant was centrifugated at 20000×g for 30 min at 4° C. to remove microvesicles. Then the supernatant was first passed through 0.22 μm filter followed by ultracentrifugation at 100,000×g for 2 h at 4° C. to collect EVs. The EVs were then washed with PBS and collected by ultracentrifugation at 100,000×g for another 2 h at 4° C. HCC patients' or healthy donors' plasma derived EVs were purified by differential centrifugation. The plasma was first centrifuged at 4000 g for 15 min to obtain cell-free plasma. Then, 500 μL of the obtained plasma was toped-up to 1 mL and then centrifuged at 20,000 g for 1 hour (Himac, CP100NX Ultracentrifuges). The collected supernatants were then centrifuged at 100,000 g for 2 h at 4° C. […]
Quantified protein lysates were resolved on SDS-PAGE, transferred onto a polyvinylidenedifluoride (PVDF) membrane (Bio-Rad), and then blocked with 5% non-fat milk in Tris-buffered saline-Tween 20 (TBST) for 1 h at room temperature. […]

Molecule | cell viability of S100A10-OE cells versus controls on treatment (HCC cells (PLC, 97L) [1]) | apoptotic indices of S100A10-OE cells versus controls on treatment (HCC cells (PLC, 97L) [2]) | xenograft tumor growth in PLC-S100A10 group versus control group when treated [3] | expression of S100A10 (S100A10) | expression of HIF-1α (HIF-1α) | further results
O=c1[nH]cc(F)c(=O)[nH]1 [5-FU, 5-flurouracil] | significantly higher | lower | significantly larger | upregulated |  | 
N.N.[Cl][Pt][Cl] [cisplatin] | significantly higher | lower | significantly larger | upregulated | upregulated | 
COc1cc2ncnc(Nc3ccc(F)c(Cl)c3)c2cc1OCCCN1CCOCC1 [gefitinib] |  |  |  |  |  | invasion ability of S100A10-OE cells (HCC cells (PLC, 97L) [4]): significantly suppressed; migration ability of S100A10-OE cells (HCC cells (PLC, 97L) [4]): significantly suppressed; focus formation of S100A10-OE cells (PLC cells [5]): significantly suppressed; sphere formation of S100A10-OE cells (PLC cells [6]): significantly suppressed; chemoresistance of S100A10-OE cells (HCC cells (PLC, 97L) [1]; PLC S100A10-OE cells, sorafenib): significantly suppressed; sensitivity of S100A10-OE cells versus Vec cells (cell proliferation) (PLC-Vec/S100A10 cells): more sensitive
CNC(=O)c1cc(Oc2ccc(NC(=O)Nc3ccc(Cl)c(C(F)(F)F)c3)cc2)ccn1 [sorafenib] | significantly higher | lower | significantly larger | upregulated | upregulated | 
GRGDSP [RGD peptide] |  |  |  |  |  | S100A10 on EVs [7]: no changes; levels of MMP2, fibronectin and EGF on EVs [7]: greatly reduced
